How the values were obtained:
HEK293 [1] = test: Cytotoxicity against human HEK293 cells assessed as reduction in cell viability measured after 72 hrs by CCK8 assay; type: cell-based; details: HEK293, 72 h
NCI-H460 [2] = test: Chemo-sensitizing activity against human NCI-H460 cells assessed as reversal fold at 1 uM measured after 72 hrs in presence of mitoxantrone by CCK8 assay relative to control; type: functional
KB-V1 [3] = test: Chemo-sensitizing activity against ABCB1-overexpressing human KB-V1 cells assessed as reversal fold at 5 uM measured after 72 hrs in presence of paclitaxel by CCK8 assay relative to control; type: functional
HEK293 [4] = test: Chemo-sensitizing activity against human HEK293 cells assessed as reversal fold at 1 uM measured after 72 hrs in presence of mitoxatrone by CCK8 assay relative to control; type: functional
KB 3-1 [5] = test: Chemo-sensitizing activity against human KB 3-1 cells assessed as reversal fold at 5 uM measured after 72 hrs in presence of colchicine by CCK8 assay relative to control; type: functional
NCI-H460 [6] = test: Chemo-sensitizing activity against human NCI-H460 cells assessed as reversal fold at 1 uM measured after 72 hrs in presence of SN-38 by CCK8 assay relative to control; type: functional
A549 [7] = test: Chemo-sensitizing activity against becatecarin-selected ABCG2-overexpressing human A549/Bec150 cells assessed as reversal fold at 2 uM measured after 72 hrs in presence of mitoxantrone by CCK8 assay relative to control; type: functional
[8] = molecular target: T1, Broad substrate specificity ATP-binding cassette transporter ABCG2 (Homo sapiens, UniProt Q9UNQ0); test: Inhibition of ABCG2 in mitoxantrone-selected ABCG2-overexpressing human NCI-H460/MX20 cells assessed as increase in intracellular mitoxantrone accumulation incubated for 1 hr in presence of mitoxantrone by flow cytometry; type: cell-based
T1 sequence (Q9UNQ0 whole entry): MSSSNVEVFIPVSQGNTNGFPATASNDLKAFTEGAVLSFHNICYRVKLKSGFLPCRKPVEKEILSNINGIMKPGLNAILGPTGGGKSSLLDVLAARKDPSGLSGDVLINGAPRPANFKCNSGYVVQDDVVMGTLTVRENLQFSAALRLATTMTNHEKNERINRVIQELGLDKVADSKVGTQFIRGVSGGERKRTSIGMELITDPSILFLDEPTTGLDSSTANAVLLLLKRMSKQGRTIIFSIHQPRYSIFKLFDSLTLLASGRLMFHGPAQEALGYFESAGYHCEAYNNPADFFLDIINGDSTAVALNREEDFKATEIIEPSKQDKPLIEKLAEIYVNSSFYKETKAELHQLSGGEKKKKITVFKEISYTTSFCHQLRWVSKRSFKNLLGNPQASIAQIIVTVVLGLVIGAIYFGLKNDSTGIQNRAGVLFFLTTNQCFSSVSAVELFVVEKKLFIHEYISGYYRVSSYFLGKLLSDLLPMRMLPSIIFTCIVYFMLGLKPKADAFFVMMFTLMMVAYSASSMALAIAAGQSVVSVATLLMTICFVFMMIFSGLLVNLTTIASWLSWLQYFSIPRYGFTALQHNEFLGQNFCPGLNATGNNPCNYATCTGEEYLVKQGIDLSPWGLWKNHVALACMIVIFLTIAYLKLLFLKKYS

A549 [9] = test: Cytotoxicity against becatecarin-selected ABCG2-overexpressing human A549/Bec150 cells assessed as reduction in cell viability measured after 72 hrs by CCK8 assay; type: ADME, cell-based; details: A549, 72 h
KB 3-1 [10] = test: Chemo-sensitizing activity against human KB 3-1 cells assessed as reversal fold at 1 uM measured after 72 hrs in presence of paclitaxel by CCK8 assay relative to control; type: functional
KB-V1 [11] = test: Chemo-sensitizing activity against ABCB1-overexpressing human KB-V1 cells assessed as reversal fold at 2 uM measured after 72 hrs in presence of paclitaxel by CCK8 assay relative to control; type: functional
NCI-H460 [12] = test: Chemo-sensitizing activity against mitoxantrone-selected ABCG2-overexpressing human NCI-H460/MX20 cells assessed as reversal fold at 1 uM measured after 72 hrs in presence of mitoxantrone by CCK8 assay relative to control; type: functional
[13] = Cytotoxicity against becatecarin-selected ABCG2-overexpressing human A549/Bec150 cells assessed as cell viability at 1 to 5 uM measured after 72 hrs by CCK8 assay; type: ADME, cell-based; details: dose 1-5 µM, read-out: Activity
A549 [14] = test: Chemo-sensitizing activity against human A549 cells assessed as reversal fold at 1 uM measured after 72 hrs in presence of topotecan by CCK8 assay relative to control; type: functional
NCI/ADR-RES [15] = test: Chemo-sensitizing activity against ABCB1-overexpressing human NCI/ADR-RES cells assessed as reversal fold at 2 uM measured after 72 hrs in presence of vincristine by CCK8 assay relative to control; type: functional
NCI-H460 [16] = test: Chemo-sensitizing activity against human NCI-H460 cells assessed as reversal fold at 5 uM measured after 72 hrs in presence of mitoxantrone by CCK8 assay relative to control; type: functional
NCI-H460 [17] = test: Chemo-sensitizing activity against human NCI-H460 cells assessed as reversal fold at 2 uM measured after 72 hrs in presence of mitoxantrone by CCK8 assay relative to control; type: functional
KB-V1 [18] = test: Chemo-sensitizing activity against ABCB1-overexpressing human KB-V1 cells assessed as reversal fold at 5 uM measured after 72 hrs in presence of vincristine by CCK8 assay relative to control; type: functional
[19] = Cytotoxicity against mitoxantrone-selected ABCG2-overexpressing human NCI-H460/MX20 cells assessed as cell viability at 1 to 5 uM measured after 72 hrs by CCK8 assay; type: ADME, cell-based; details: dose 1-5 µM, read-out: Activity
A549 [20] = test: Cytotoxicity against human A549 cells assessed as reduction in cell viability measured after 72 hrs by CCK8 assay; type: cell-based; details: A549, 72 h
ABCG2 = test: Resistance factor, ratio of IC50 for becatecarin-selected ABCG2-overexpressing human A549/Bec150 cells to IC50 for human A549 cells; type: ADME; details: read-out: Ratio IC50
A549 [21] = test: Chemo-sensitizing activity against human A549 cells assessed as reversal fold at 1 uM measured after 72 hrs in presence of mitoxantrone by CCK8 assay relative to control; type: functional
KB-V1 [22] = test: Chemo-sensitizing activity against ABCB1-overexpressing human KB-V1 cells assessed as reversal fold at 2 uM measured after 72 hrs in presence of vincristine by CCK8 assay relative to control; type: functional
HEK293 [23] = test: Chemo-sensitizing activity against ABCG2-overexpressing human HEK293 cells assessed as reversal fold at 2 uM measured after 72 hrs in presence of topotecan by CCK8 assay relative to control; type: functional
NCI/ADR-RES [24] = test: Chemo-sensitizing activity against ABCB1-overexpressing human NCI/ADR-RES cells assessed as reversal fold at 2 uM measured after 72 hrs in presence of colchicine by CCK8 assay relative to control; type: functional
HEK293 [25] = test: Chemo-sensitizing activity against ABCB1-overexpressing human HEK293/MDR19 cells assessed as reversal fold at 5 uM measured after 72 hrs in presence of vincristine by CCK8 assay relative to control; type: functional
KB 3-1 [26] = test: Chemo-sensitizing activity against human KB 3-1 cells assessed as reversal fold at 5 uM measured after 72 hrs in presence of vincristine by CCK8 assay relative to control; type: functional

C=C(C)[C@H](CC=C(C)C)Cc1c(O)cc(O)c2c1O[C@H](c1ccc(O)cc1O)CC2=O [SOPHORAFLAVANONE G]
IC50 (HEK293 [1]): 35.1 µM | fold change (FC) (NCI-H460 [2]): 2.3 | fold change (FC) (KB-V1 [3]): 1.6 | fold change (FC) (HEK293 [4]): 1 | fold change (FC) (KB 3-1 [5]): 1.1 | fold change (FC) (NCI-H460 [6]): 1.3 | fold change (FC) (A549 [7]): 5.9 | IC50 [8]: 2.12 µM | inhibition (INH) ([8]; human, nci-h460, 1 h, time 1 hrs): Dose-dependent effect | IC50 (A549 [9]): 21.3 µM | fold change (FC) (KB 3-1 [10]): 0.9 | fold change (FC) (KB-V1 [11]): 1.2 | fold change (FC) (NCI-H460 [12]): 1.9 | viability at 72 h, up to 5 µM [13]: > 90% | fold change (FC) (A549 [14]): 1.1 | fold change (FC) (NCI/ADR-RES [15]): 1 | fold change (FC) (NCI-H460 [16]): 2.2 | fold change (FC) (NCI-H460 [17]): 2.4 | fold change (FC) (KB-V1 [18]): 1.3 | viability at 72 h, 5 µM [19]: > 90% | IC50 (A549 [20]): 26.2 µM | selectivity ratio (ABCG2): 0.8 | fold change (FC) (A549 [21]): 1.2 | fold change (FC) (KB-V1 [22]): 1.1 | fold change (FC) (HEK293 [23]): 2.3 | fold change (FC) (NCI/ADR-RES [24]): 0.8 | fold change (FC) (HEK293 [25]): 2.2 | fold change (FC) (KB 3-1 [26]): 1.7
